Assay results reported in patent publication US20090238852A1, “METHODS FOR CONTROLLING INTRACELLULAR CALCIUM LEVELS ASSOCIATED WITH AN ISCHEMIC EVENT” (University of Utah Research Foundation, priority 2008, published 2009).

Tests used:
[1] = tested on: platelets with HIT antibody; experiment: Serotonin release assay (SRA) with HIT-positive serum; conditions: ODSH added with heparin to the HIT antibody
Method: Two techniques were employed to measure platelet activation in response to heparin or 2-O desulfated heparin in the presence of HIT-reactive serum.
The first technique was the serotonin release assay (SRA), considered the gold standard laboratory test for HIT, and performed as described by Sheridan (Sheridan D, et al. Blood 67:27-30, 1986). Washed platelets were loaded with ^14C serotonin (^14C-hydroxy-tryptamine-creatine sulfate, Amersham), and then incubated with various concentrations of test heparin or heparin analog in the presence of serum from known HIT-positive patients as a source of antibody. Activation was assessed as ^14C serotonin release from platelets during activation, with ^14C serotonin quantitated using a liquid scintillation counter. […] Activated platelets are defined as percent isotope release of ≧20%.
The initial 3 ml (milliliters) of whole blood in the first syringe was discarded. The anticoagulated blood was centrifuged (80×g (gravity), 15 min, room temperature) to obtain platelet rich plasma (PRP). […] EDTA was added to stop the reaction, and the mixture was centrifuged to pellet the platelets. ^14C-serotonin released into the supernatant was measured on a scintillation counter. Maximal release was measured following platelet lysis with 10% Triton X-100. […]

[2] = tested on: rabbit ventricular myocytes; experiment: [Ca^++]i during paced aerobic metabolism (PH) with the Na^+ channel opener ATX; assay type: cell-based; conditions: n = 7
Method: In these studies, intracellular calcium concentration [Ca^++]i was measured by flow cytometry. Measurement of isolated mouse and rabbit ventricular myocyte [Ca^2+]i and [Na^+]i by flow cytometry has been described (Zhang et al., J. Cardiovasc. Pharmacol. 51: 443-449 (2008); Li et al., J. Mol. Cell. Cardiol. 33: 2145-2155 (2001)). [Ca^++]i was measured with the Ca^++ sensitive fluorescent probe, Fluo 3-AM (Molecular Probes, Eugene, Oreg.), using a FACScan (Becton-Dickinson, MA). The cells were exposed to 4 μmol/L Fluo-3 AM for 30 min at 37° C. The cells were then separated into aliquots. After 40 min of wash, the cells were exposed to paced metabolic ischemia (MI) for 45 min at 37° C. Metabolic ischemia was accomplished by incubating cells in a glucose-free MKRBB solution (pH 7.40) containing 2 mmol/L sodium cyanide (NaCN) to impair mitochondrial and glycolytic generation of ATP. To reproduce the situation in the beating ischemic heart, during the period of metabolic ischemia, myocytes were placed in a 5-well chamber with equal volumes of myocyte suspensions from the same heart dissociation placed in each well. The chamber was water bathed to maintain temperature at 37° C. and bubbled with 5% CO2 in air to keep myocytes in suspension. […] Approximately 2×10^3 myocytes were analyzed to calculate average emission fluorescence intensity in each sample. […] Only those cells with low fluorescence intensity at 670 nm (PI-negative cells or viable cells) were included in the comparative analysis of [Ca^++]i. The sample [Ca^2+]i values were calculated by Mn^2+ quenching (Sugishita et al, 2001) and [Na^+]i values by comparison with a standard curve of varied [Na^+]i versus Na Green fluorescence. […] Results were expressed as means±SEM. […]
To further examine the role of ODSH as a Na^+ inhibitor, additional experiments were performed in which the Na^+ channel opener amenone toxin II (ATX) was added to medium in a final concentration of 20 nmol/L to open the cardiac myocyte membrane Na^+ channel. […] Intracellular calcium concentration [Ca^++]i was monitored as earlier. […]

## 2-O, 3-O desulfated heparin [ODSH]
[1]
  effect on heparin-induced platelet activation: prevented heparin from causing platelet activation
[2]; PH + ODSH 100 μg/mL + ATX 20 nmol/L, PH + ATX 529.1 ± 29.3
  [Ca^++]i: 412.9 ± 26.7^+ nM
[2]; PH + ODSH 100 μg/mL, no ATX, PH alone 406.8 ± 15.9
  [Ca^++]i: 366.4 ± 21.1 nM
